# Data from patent US20240158446A1, “CYCLIC COMPOUND HAVING SELECTIVE INHIBITORY ACTION ON KRAS OVER HRAS AND NRAS” (CHUGAI SEIYAKU KABUSHIKI KAISHA, priority 2021, published 2024).
# How the values were obtained:
# [1] = target: GDP-bound NRAS wild-type protein (Homo sapiens, UniProt P01111); test: Binding to NRAS by surface plasmon resonance (SPR), Single Cycle Kinetics; conditions: for NRAS/KRAS (ratio of KD value with respect to GDP-bound NRAS wild-type protein to KD value with respect to KRAS): SPR KD ratio NRAS/KRAS, class symbols
# [2] = target: GDP-bound HRAS wild-type protein (Homo sapiens, UniProt P01112); test: Binding to HRAS by surface plasmon resonance (SPR), Single Cycle Kinetics; conditions: for HRAS/KRAS (ratio of KD value with respect to GDP-bound HRAS wild-type protein to KD value with respect to KRAS): SPR KD ratio HRAS/KRAS, class symbols
# [3] = SPR, GDP-bound NRAS wild-type protein vs GDP-bound KRAS wild-type protein
# [4] = SPR, GDP-bound HRAS wild-type protein vs GDP-bound KRAS wild-type protein
# [5] = SPR, GDP-bound NRAS wild-type protein vs GDP-bound KRAS wild-type protein, KD ratio class
# [6] = SPR, GDP-bound HRAS wild-type protein vs GDP-bound KRAS wild-type protein, KD ratio class
# Chain of GDP-bound HRAS wild-type protein (P01112 whole entry): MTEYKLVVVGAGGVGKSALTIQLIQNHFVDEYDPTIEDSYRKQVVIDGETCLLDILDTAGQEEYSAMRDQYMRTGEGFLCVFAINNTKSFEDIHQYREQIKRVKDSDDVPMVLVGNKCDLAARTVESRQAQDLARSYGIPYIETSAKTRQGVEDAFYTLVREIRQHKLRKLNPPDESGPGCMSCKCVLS
# Chain of GDP-bound NRAS wild-type protein (P01111 whole entry): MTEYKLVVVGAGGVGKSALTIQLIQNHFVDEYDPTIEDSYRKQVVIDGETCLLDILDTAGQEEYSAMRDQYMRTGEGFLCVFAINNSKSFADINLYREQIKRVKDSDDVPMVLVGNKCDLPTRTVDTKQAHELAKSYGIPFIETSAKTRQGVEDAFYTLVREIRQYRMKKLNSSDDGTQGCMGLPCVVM
SMILES,NRAS/KRAS (ratio of KD value with respect to GDP-bound NRAS wild-type protein to KD value with respect to KRAS) [1],HRAS/KRAS (ratio of KD value with respect to GDP-bound HRAS wild-type protein to KD value with respect to KRAS) [2],"NRAS/KRAS (ratio of KD value for NRAS to KD value for KRAS) [1, 5]","HRAS/KRAS (ratio of KD value for HRAS to KD value for KRAS) [2, 6]",also measured
CCO[C@@H]1C[C@H]2C(=O)NC3(CCC3)C(=O)N(C)[C@@H](C3CCCC3)C(=O)N(C)[C@H](C(=O)N(C)C)CC(=O)N(C)[C@@H](CC3CCCCC3)C(=O)N[C@@H]([C@@H](C)CC)C(=O)N(C)CC(=O)N(C)[C@H]3CCCCCN(C3=O)[C@@H](Cc3ccc(C(F)(F)F)cc3)C(=O)N(C)CC(=O)N[C@@H](CCc3cc(F)c(C(F)(F)F)c(F)c3)C(=O)N2C1 [PP0671],,,,,"NRAS/KRAS (ratio of KD value with respect to NRAS to KD value with respect to KRAS) [1, 3]: B (a compound having 3 or more and less than 10 is denoted as B); HRAS/KRAS (ratio of KD value with respect to HRAS to KD value with respect to KRAS) [2, 4]: B (a compound having 3 or more and less than 10 is denoted as B)"
CCC[C@H]1C(=O)N[C@@H]([C@@H](C)CC)C(=O)N(C2CC2)CC(=O)N(C)[C@H]2C/C=C\CCN(C2=O)[C@@H](Cc2ccc(C)cc2)C(=O)N(C)CC(=O)N[C@@H](CCc2cc(F)c3c(c2)CCC3)C(=O)N2C[C@H](OCC)C[C@H]2C(=O)NC2(CC(C)(C)C2)C(=O)N(C)[C@@H](C2CCCC2)C(=O)N(C)[C@H](C(=O)N(C)C)CC(=O)N1C [PP2879],A (a compound having 10 or more and less than 20 is denoted as A),A (a compound having 10 or more and less than 20 is denoted as A),,,
CCO[C@@H]1C[C@H]2C(=O)NC3(CC(C)(C)C3)C(=O)N(C)[C@@H](C(CC)CC)C(=O)N(C)[C@H](C(=O)N(C)C)CC(=O)N(C)[C@@H](CC(C)C)C(=O)N[C@@H]([C@@H](C)CC)C(=O)N(C)CC(=O)N(C)[C@H]3C/C=C\CCN(C3=O)[C@@H](Cc3ccc(C)cc3)C(=O)N(C)CC(=O)N[C@@H](CCc3cc(F)c(C(F)(F)F)c(F)c3)C(=O)N2C1 [PP2141],,,,,"NRAS/KRAS (ratio of KD value for NRAS to KD value for KRAS) [1, 3]: A (a compound having 10 or more and less than 20 is denoted as A); HRAS/KRAS (ratio of KD value for HRAS to KD value for KRAS) [2, 4]: A (a compound having 10 or more and less than 20 is denoted as A)"
CCC(CC)[C@H]1C(=O)N(C)[C@H](C(=O)N(C)C)CC(=O)N(C)[C@@H](COC)C(=O)N[C@@H]([C@@H](C)CC)C(=O)N(C)CC(=O)N(C)[C@H]2C/C=C\CCN(C2=O)[C@@H](Cc2ccc(C)cc2)C(=O)N(C)CC(=O)N[C@@H](CCc2ccc(C(F)(F)F)c(OC)c2)C(=O)N2CCCCC[C@H]2C(=O)NC2(CC(C)(C)C2)C(=O)N1C [PP2970],A (a compound having 10 or more and less than 20 is denoted as A),A (a compound having 10 or more and less than 20 is denoted as A),,,
CCC[C@H]1C(=O)N[C@@H](C2CCCC2)C(=O)N(C)CC(=O)N(C)[C@H]2C/C=C\CCN(C2=O)[C@@H](Cc2ccc(C)cc2)C(=O)N(C)CC(=O)N[C@@H](CCc2ccc(C(F)(F)F)c(Cl)c2)C(=O)N2C[C@H](OCC)C[C@H]2C(=O)NC2(CC(C)(C)C2)C(=O)N(C)[C@@H](CC(C)C)C(=O)N(C)[C@H](C(=O)N(C)C)CC(=O)N1C [PP2190],,,,,"NRAS/KRAS (ratio of KD value for NRAS to KD value for KRAS) [1, 3]: A (a compound having 10 or more and less than 20 is denoted as A); HRAS/KRAS (ratio of KD value for HRAS to KD value for KRAS) [2, 4]: A (a compound having 10 or more and less than 20 is denoted as A)"
CCO[C@@H]1C[C@H]2C(=O)NC3(CCC3)C(=O)N(C)[C@@H](C(CC)CC)C(=O)N(C)[C@H](C)CC(=O)N(C)[C@@H](CC(C)C)C(=O)N[C@@H]([C@@H](C)CC)C(=O)N(C)CC(=O)N(C)[C@H]3C/C=C\CCN(C3=O)[C@@H](Cc3ccc(F)cc3)C(=O)N(C)CC(=O)N[C@@H](CCc3cc(F)c(C(F)(F)F)c(F)c3)C(=O)N2C1 [PP1525],,,A (a compound having 10 or more and less than 20 is denoted as A),A (a compound having 10 or more and less than 20 is denoted as A),
CCO[C@@H]1C[C@H]2C(=O)NC3(CCC3)C(=O)N(C)[C@@H](C3CCCC3)C(=O)N(C)[C@H](C(=O)N3CCOCC3)CC(=O)N(C)[C@@H](CC3CC3)C(=O)N[C@@H]([C@@H](C)CC)C(=O)N(C)CC(=O)N(C)[C@H]3C/C=C\CCN(C3=O)[C@@H](Cc3ccc(F)cc3C)C(=O)N(C)CC(=O)N[C@@H](CCc3cc(F)c(C(F)(F)F)c(F)c3)C(=O)N2C1 [PP1495],,,A (a compound having 10 or more and less than 20 is denoted as A),B (a compound having 3 or more and less than 10 is denoted as B),
CCC[C@H]1C(=O)N[C@@H](C2CCC2)C(=O)N(C)CC(=O)N(C)[C@H]2C/C=C\CCN(C2=O)[C@@H](Cc2ccc(C)cc2)C(=O)N(C)CC(=O)N[C@@H](CCc2ccc(C(F)(F)F)c(F)c2)C(=O)N2C[C@H](OCC)C[C@H]2C(=O)NC2(CC(C)(C)C2)C(=O)N(C)[C@@H](C2CCC2)C(=O)N(C)[C@H](C(=O)N(C)C)CC(=O)N1C [PP2242],,,,,"NRAS/KRAS (ratio of KD value for NRAS to KD value for KRAS) [1, 3]: A (a compound having 10 or more and less than 20 is denoted as A); HRAS/KRAS (ratio of KD value for HRAS to KD value for KRAS) [2, 4]: A (a compound having 10 or more and less than 20 is denoted as A)"
C=CCCCCN(C)C(=O)[C@@H]1CC(=O)N(C)[C@@H](CC2CC2)C(=O)N[C@@H](CC=C)C(=O)N(C)CC(=O)N(C)[C@H]2C/C=C\CCN(C2=O)[C@@H](Cc2ccc(C(F)(F)F)cc2)C(=O)N(C)CC(=O)N[C@@H](CCc2cc(F)c(C(F)(F)F)c(F)c2)C(=O)N2C[C@H](OCC)C[C@H]2C(=O)NC2(CCC2)C(=O)N(C)[C@@H](C2CCCC2)C(=O)N1C [PP1554],,,A (a compound having 10 or more and less than 20 is denoted as A),A (a compound having 10 or more and less than 20 is denoted as A),
CCO[C@@H]1C[C@H]2C(=O)NC3(CC(C)(C)C3)C(=O)N(C)[C@@H](C3CCCC3)C(=O)N(C)[C@H](C(=O)N(C)C)CC(=O)N(C)[C@@H](CC3CCCC3)C(=O)N[C@@H]([C@@H](C)CC)C(=O)N(C)CC(=O)N(C)[C@H]3C/C=C\CCN(C3=O)[C@@H](Cc3ccc(C(F)(F)F)cc3)C(=O)N(C)CC(=O)N[C@@H](CCc3ccc(C(F)(F)F)c(OC)c3)C(=O)N2C1 [PP1565],,,A (a compound having 10 or more and less than 20 is denoted as A),B (a compound having 3 or more and less than 10 is denoted as B),
CCC(CC)[C@H]1C(=O)N(C)[C@H](C(=O)N(C)C)CC(=O)N(C)[C@@H](COC)C(=O)N[C@@H]([C@@H](C)CC)C(=O)N(C)CC(=O)N(C)[C@H]2C/C=C\CCN(C2=O)[C@@H](Cc2ccc(C)cc2)C(=O)N(C)CC(=O)N[C@@H](CCc2ccc(C(F)(F)F)c(Cl)c2)C(=O)N2CCCC[C@H]2C(=O)NC2(CC(C)(C)C2)C(=O)N1C [PP2931],A (a compound having 10 or more and less than 20 is denoted as A),A (a compound having 10 or more and less than 20 is denoted as A),,,
CCOC[C@H]1C(=O)N[C@@H]([C@@H](C)CC)C(=O)N(C)CC(=O)N(C)[C@H]2C/C=C\CCN(C2=O)[C@@H](Cc2ccc(C3CC3)cc2)C(=O)N(C)CC(=O)N[C@@H](CCc2ccc(C(F)(F)F)c(OC)c2)C(=O)N2C[C@@H](C)C[C@H]2C(=O)NC2(CC(C)(C)C2)C(=O)N(C)[C@@H](C2CCCC2)C(=O)N(C)[C@H](C(=O)N(C)CC)CC(=O)N1C [PP2700],A (a compound having 10 or more and less than 20 is denoted as A),B (a compound having 3 or more and less than 10 is denoted as B),,,
CCO[C@@H]1C[C@H]2C(=O)NC3(CC(C)(C)C3)C(=O)N(C)[C@@H](C3CCCC3)C(=O)N(C)[C@H](C(=O)N(C)C)CC(=O)N(C)[C@@H](CC(C)C)C(=O)N[C@@H]([C@@H](C)CC)C(=O)N(C)CC(=O)N(C)[C@H]3C/C=C\CCN(C3=O)[C@@H](Cc3ccc(C(C)=O)cc3)C(=O)N(C)CC(=O)N[C@@H](CCc3ccc(C(F)(F)F)c(OC)c3)C(=O)N2C1 [PP2694],A (a compound having 10 or more and less than 20 is denoted as A),B (a compound having 3 or more and less than 10 is denoted as B),,,
CCO[C@@H]1C[C@H]2C(=O)NC3(CCC3)C(=O)N(C)[C@@H](C3CCCC3)C(=O)N(C)[C@H](C)CC(=O)N(C)[C@@H](CC(C)C)C(=O)N[C@@H]([C@@H](C)CC)C(=O)N(C)CC(=O)N(C)[C@H]3C/C=C\CCN(C3=O)[C@@H](Cc3ccc(F)cc3C)C(=O)N(C)CC(=O)N[C@@H](CCc3cc(F)c(C(F)(F)F)c(F)c3)C(=O)N2C1 [PP1493],,,B (a compound having 3 or more and less than 10 is denoted as B),B (a compound having 3 or more and less than 10 is denoted as B),
CCCOC[C@H]1C(=O)N[C@@H]([C@@H](C)CC)C(=O)N(C)CC(=O)N(C)[C@H]2C/C=C\CCN(C2=O)[C@@H](Cc2ccc(C)cc2)C(=O)N(C)CC(=O)N[C@@H](CCc2cc(F)c(C(F)(F)F)c(F)c2)C(=O)N2C[C@H](C)C[C@H]2C(=O)NC2(CCCC2)C(=O)N(C)[C@@H](C2CCCC2)C(=O)N(C)[C@H](C(=O)N(C)C)CC(=O)N1C [PP2225],,,,,"NRAS/KRAS (ratio of KD value for NRAS to KD value for KRAS) [1, 3]: A (a compound having 10 or more and less than 20 is denoted as A); HRAS/KRAS (ratio of KD value for HRAS to KD value for KRAS) [2, 4]: A (a compound having 10 or more and less than 20 is denoted as A)"
